Test results as given in patent US20250011881A1, “MYC-HSF1 DUAL AMPLIFICATION AS A BIOMARKER FOR CANCER TREATMENT” (The Trustees of Indiana University, priority 2023, published 2025).
Values joined by “and” are separate entries in the source; they are usually repeats but may differ in a detail not shown here. Identical values can stand only once. Counter-ions that a name gives are not always drawn.

test system: ovarian cancer cells with (OVCAR8, OVCAR4) or without (OVSAHO, CAOV3) MYC-HSF1 amplification; assay: Epigenetic inhibitor drug screen, cell viability (Cell Titer Blue); format: cell-based; conditions: not given

Structure (SMILES) | Non Amp - AMP (POC) 10 uM
C/C(O)=C(\C#N)C(=O)Nc1cc(Br)ccc1Br [LFM-A13] | 5.442 POC
NC(=O)c1cccc2cn(-c3ccc([C@@H]4CCCNC4)cc3)nc12 [MK-4827] | −0.7556 POC
N=C1NC(=O)/C(=C/c2ccc(O)cc2)S1 [Mirin] | 4.24 POC
CO[C@@]12[C@H](COC(N)=O)C3=C(C(=O)C(C)=C(N)C3=O)N1C[C@@H]1N[C@@H]12 [Mitomycin C] | 14.14 POC
[NH2][Pt]1([NH2])[O]CC(=O)[O]1 [Nedaplatin] | −10.66 POC
Cc1ccc(-n2sc3ccccc3c2=O)cc1 [PBIT] | −46.19 POC

same assay, conditions: 10 µM

Structure (SMILES) | Non Amp - AMP (POC) 10 uM
COc1ccc(Cn2ccc3ccc(C(=O)NO)cc32)cc1 [PCI 34051] | −4.834 POC

same assay, conditions: 10 uM, 48 hrs; average relative cell viability (vs 1% DMSO) of non-amplified cells (OVSAHO, CAOV3) minus that of MYC-HSF1 amplified cells (OVCAR8, OVCAR4); positive = greater response in amplified cells

Structure (SMILES) | Non Amp - AMP (POC) 10 uM
Cc1cn(CCN2CCN(c3ccccc3-c3cc(C#N)cc(C(=O)NCCCN4CCCC4)c3)CC2)c2ccccc12 [LLY507] | −14.82 POC
Cc1cc(Nc2cc(CN3CCOCC3)c3nc(C)c(Cc4ccc(Cl)cc4F)n3n2)n[nH]1 [LY2784544] | −1.068 POC
CC(C)OC(=O)CCC/C=C\C[C@@H]1[C@@H](CC[C@@H](O)CCc2ccccc2)[C@H](O)C[C@@H]1O [Latanoprost] | −8.842 POC
Nc1nc(OCc2cc(Br)cs2)c2[nH]cnc2n1 [Lomeguatrib] | 9.851 POC
CN(C)c1ccc(C(=O)NCCCCCCC(=O)NO)cc1 [M344] | 22.65 POC
CCC1C/C(=C\c2cccnc2)C(=O)/C(=C/c2cccnc2)C1 (stereo not shown) [MCB-613] | −5.355 POC
C[C@H](NC(=O)CCc1nc2ccccc2c(=O)[nH]1)c1ccccc1 [ME0328] | 15.81 POC
CCCCCCCc1ccc(CCc2cccc(O)c2C(=O)O)cc1 [MG 149] | −0.4614 POC
O=C(O)[C@]1(Cc2cccc(Nc3nccs3)n2)CC[C@@H](Oc2cccc(Cl)c2F)CC1 [MK-5108 (VX-689)] | 0.08992 POC
O=C(c1cccc(Cl)c1F)N1CCN(Cc2cccc(Nc3nccs3)n2)CC1 [MK-8745] | 10.66 POC
O=C(O)c1ccc(Nc2ncc3c(n2)-c2ccc(Cl)cc2C(c2c(F)cccc2F)=NC3)cc1 [MLN8054] | −12.87 POC
COc1cc(Nc2ncc3c(n2)-c2ccc(Cl)cc2C(c2c(F)cccc2OC)=NC3)ccc1C(=O)O [MLN8237 (Alisertib), Alisertib] | −25.51 POC
CC(C)c1ccc(-c2cc(=O)c3ccccc3o2)cc1 [MN 64] | −7.835 POC
CNCCN1CCC(OCc2ccccc2)CC1.Cl.Cl [MS049 (hydrochloride)] | −3.654 POC
Cc1cc(/N=N/c2ccc(S(=O)(=O)Nc3ccccn3)cc2)c(N)cc1O [MS436] | 8.852 POC
COC(=O)/C=C/C(=O)N(O)CCCCNCc1ccc(COC(=O)Nc2cccc3ccccc23)cc1 [Methylstat (hydrate), Methylstat] | −5.079 POC
CO[C@@H]1[C@H](N(C)C(=O)c2ccccc2)C[C@H]2O[C@]1(C)n1c3ccccc3c3c4c(c5c6ccccc6n2c5c31)C(=O)NC4 [Midostaurin (PKC412), Midostaurin] | −9.891 POC

Structure (SMILES) | Non Amp - AMP (POC) 10 uM
O=C1c2c(O)ccc(O)c2C(=O)c2c(NCCNCCO)ccc(NCCNCCO)c21 [Mitoxantrone HCl] | 11.28 POC
O=c1c(-n2ccnn2)c[nH]n1-c1cc(N2CCOCC2)ncn1 [Molidustat (BAY85-3934), Molidustat] | −4.287 POC
C[C@@H]1O[C@@H](Oc2c(-c3cc(O)c(O)c(O)c3)oc3cc(O)cc(O)c3c2=O)[C@H](O)[C@H](O)[C@H]1O [Myricetrin] | −0.2723 POC
O=C(O)CNC(=O)C(=O)O [N-Oxalylglycine] | 14.36 POC
COc1cc(C#N)ccc1S(=O)(=O)Nc1ccc2c(c1)cc(C)c(=O)n2C [NI-57] | 11.2 POC
O=[N+]([O-])c1ccc(Sc2cccc[n+]2[O-])c2nonc12 [NSC228155] | 4.767 POC
O=S(=O)(O)c1ccc2cc(N=Nc3cc(S(=O)(=O)O)c4cccnc4c3O)ccc2c1 [NSC 87877] | 8.877 POC
C[C@@H]1O[C@@H](CC(=O)O)CC2=C1C(=O)c1c(O)cccc1C2=O [Nanaomycin A] | 2.594 POC
CCCCN(Cc1ccc(C(=O)NO)cc1)C(=O)Nc1ccccc1 [Nexturastat A] | 23.67 POC
NC(=O)c1cccnc1 [Nicotinamide] | −2.471 POC
CN1CCN(c2ccc(-c3cccc(CN4CCOCC4)c3)cc2NC(=O)c2c[nH]c(=O)cc2C(F)(F)F)CC1 [OICR-9429] | 12.58 POC
CCCCCCCCOC(=O)C(O)CCC(=O)O (stereo not shown) [Octyl-a-hydroxyglutarate] | 0.5587 POC
CC1COc2c(N3CCN(C)CC3)c(F)cc3c(=O)c(C(=O)O)cn1c23 (stereo not shown) [Ofloxacin] | 5.913 POC
O=C(c1cc(Cc2n[nH]c(=O)c3ccccc23)ccc1F)N1CCN(C(=O)C2CC2)CC1 [Olaparib (AZD2281, Ku-0059436), Olaparib] | 3.527 POC
Nc1ccccc1NC(=O)CCCCCC(=O)Nc1ccccc1 [PAOA] | 29.57 POC
CCCOc1ccc(CCc2nc3cc(-c4c(C)noc4C)ccc3n2CCN2CCOCC2)cc1.Cl [PF-CBP1 hydrochloride] | 9.953 POC

same assay, conditions: 10 uM, 48 hrs; average relative cell viability (vs 1% DMSO) of non-amplified cells (OVSAHO, CAOV3) minus that of MYC-HSF1 amplified cells (OVCAR8, OVCAR4); positive = greater response in amplified cells; 10 µM

Structure (SMILES) | Non Amp - AMP (POC) 10 uM
O=C(/C=C/c1ccc(CN(CCO)CCc2c[nH]c3ccccc23)cc1)NO [LAQ824, Dacinostat] | 43.86 POC
Cc1cc(C)cc(C(=O)NOCCCCCC(=O)NO)c1 [LMK 235] | 44.96 POC and 34.77 POC
Cn1c(/C=C/C(=O)NO)ccc1/C=C/C(=O)c1cccc(F)c1 [MC 1568] | −4.947 POC
CCCc1cc2c(N3CCN(C4=NCC(C)(C)S4)CC3)ncnc2s1 [MI-2 (hydrochloride)] | 6.017 POC
CCCc1cc2c(N3CCN(C4=NCC(C)(C)S4)CC3)ncnc2s1 [MI-2] | 8.542 POC
CN(C)CCCNC(=O)c1ccc(-c2cc(O)c3ncccc3c2)cc1 [ML-324] | 7.484 POC
CCC(CC)(NC(=O)C(C)C)C(=O)N[C@@H](CCCN=C(N)N)C(=O)NC1(C(=O)NC(c2ccc(F)cc2)c2ccc(F)cc2)CCCC1 [MM-102] | 10.41 POC and 6.837 POC
CC(C)Oc1ccc(-c2c[nH]cc2CN(C)CCN)cc1 [MS023 (hydrochloride)] | 6.531 POC
CC(C)Oc1ccc(-c2c[nH]cc2CN(C)CCN)cc1 [MS023] | −0.6323 POC
Nc1ccccc1NC(=O)c1ccc(CNc2nccc(-c3cccnc3)n2)cc1 [Mocetinostat] | 49.31 POC
CC(C)C(=O)SCCCCCCC(=O)Nc1nc(-c2ccccc2)cs1 [NCH-51] | 27.52 POC
O=Nc1ccc(O)c2ncccc12 [NSC 3852] | 27.71 POC
Fc1cc(-c2cccc3ncc(-c4cnn(C5CCNCC5)c4)nc23)cc(F)c1CN1CCOCC1 [NVP-BSK805 2HCl] | −12.67 POC
Fc1cc(-c2cccc3ncc(-c4cnn(C5CCNCC5)c4)nc23)cc(F)c1CN1CCOCC1 [NVP-BSK805] | −1.371 POC
Cc1sc2c(c1C)C(c1ccc(Cl)cc1)=N[C@@H](CC(=O)Nc1ccc(O)cc1)c1nnc(C)n1-2 [OTX015] | 15.65 POC
CN(C)Cc1c(C(=O)NCCOc2ccc(C(=O)NO)cc2)oc2ccccc12 [PCI 24781] | 42.57 POC
COc1ccccc1S(=O)(=O)Nc1ccc2c(c1)CN(C)C(=O)N2 [PFI-1] | 9.637 POC
Cl.O=C([C@@H](Cc1cccc(C(F)(F)F)c1)NS(=O)(=O)c1cc(F)c2c(c1)CCNC2)N1CCCC1 [PFI-2 (hydrochloride)] | 2.189 POC

same assay, conditions: 10 uM, 48 hrs; average relative cell viability (vs 1% DMSO) of non-amplified cells (OVSAHO, CAOV3) minus that of MYC-HSF1 amplified cells (OVCAR8, OVCAR4); positive = greater response in amplified cells; listed as LAQ824 (NVP-LAQ824, Dacinostat), 10 µM

Structure (SMILES) | Non Amp - AMP (POC) 10 uM
O=C(/C=C/c1ccc(CN(CCO)CCc2c[nH]c3ccccc23)cc1)NO [LAQ824, Dacinostat] | 28.82 POC

same assay, conditions: 10 uM, 48 hrs; average relative cell viability (vs 1% DMSO) of non-amplified cells (OVSAHO, CAOV3) minus that of MYC-HSF1 amplified cells (OVCAR8, OVCAR4); positive = greater response in amplified cells; listed as MC1568, 10 µM

Structure (SMILES) | Non Amp - AMP (POC) 10 uM
Cn1c(/C=C/C(=O)NO)ccc1/C=C/C(=O)c1cccc(F)c1 [MC 1568] | −17.78 POC

same assay, conditions: 10 uM, 48 hrs; average relative cell viability (vs 1% DMSO) of non-amplified cells (OVSAHO, CAOV3) minus that of MYC-HSF1 amplified cells (OVCAR8, OVCAR4); positive = greater response in amplified cells; listed as ML324, 10 µM

Structure (SMILES) | Non Amp - AMP (POC) 10 uM
CN(C)CCCNC(=O)c1ccc(-c2cc(O)c3ncccc3c2)cc1 [ML-324] | 4.315 POC

same assay, conditions: 10 uM, 48 hrs; average relative cell viability (vs 1% DMSO) of non-amplified cells (OVSAHO, CAOV3) minus that of MYC-HSF1 amplified cells (OVCAR8, OVCAR4); positive = greater response in amplified cells; listed as Mocetinostat (MGCD0103, MG0103), 10 µM

Structure (SMILES) | Non Amp - AMP (POC) 10 uM
Nc1ccccc1NC(=O)c1ccc(CNc2nccc(-c3cccnc3)n2)cc1 [Mocetinostat] | 36.88 POC

same assay, conditions: 10 uM, 48 hrs; average relative cell viability (vs 1% DMSO) of non-amplified cells (OVSAHO, CAOV3) minus that of MYC-HSF1 amplified cells (OVCAR8, OVCAR4); positive = greater response in amplified cells; listed as NCH 51, 10 µM

Structure (SMILES) | Non Amp - AMP (POC) 10 uM
CC(C)C(=O)SCCCCCCC(=O)Nc1nc(-c2ccccc2)cs1 [NCH-51] | 9.119 POC

same assay, conditions: 10 uM, 48 hrs; average relative cell viability (vs 1% DMSO) of non-amplified cells (OVSAHO, CAOV3) minus that of MYC-HSF1 amplified cells (OVCAR8, OVCAR4); positive = greater response in amplified cells; listed as OTX-015, 10 µM

Structure (SMILES) | Non Amp - AMP (POC) 10 uM
Cc1sc2c(c1C)C(c1ccc(Cl)cc1)=N[C@@H](CC(=O)Nc1ccc(O)cc1)c1nnc(C)n1-2 [OTX015] | 2.251 POC

same assay, conditions: 10 uM, 48 hrs; average relative cell viability (vs 1% DMSO) of non-amplified cells (OVSAHO, CAOV3) minus that of MYC-HSF1 amplified cells (OVCAR8, OVCAR4); positive = greater response in amplified cells; listed as PCI-24781 (CRA-024781), 10 µM

Structure (SMILES) | Non Amp - AMP (POC) 10 uM
CN(C)Cc1c(C(=O)NCCOc2ccc(C(=O)NO)cc2)oc2ccccc12 [PCI 24781] | 28.7 POC

same assay, conditions: 10 uM, 48 hrs; average relative cell viability (vs 1% DMSO) of non-amplified cells (OVSAHO, CAOV3) minus that of MYC-HSF1 amplified cells (OVCAR8, OVCAR4); positive = greater response in amplified cells; listed as PFI-1 (PF-6405761), 10 µM

Structure (SMILES) | Non Amp - AMP (POC) 10 uM
COc1ccccc1S(=O)(=O)Nc1ccc2c(c1)CN(C)C(=O)N2 [PFI-1] | 2.51 POC

same assay, conditions: listed as PCI-34051, 10 µM

Structure (SMILES) | Non Amp - AMP (POC) 10 uM
COc1ccc(Cn2ccc3ccc(C(=O)NO)cc32)cc1 [PCI 34051] | −22.68 POC
